≈ marks a conversion by molar mass, not a printed value.

The subject of one test is S. aureus ATCC 29213. Put plainly: MIC by broth microdilution (CLSI), quality control strain S. aureus ATCC 29213. Type of test: cell-based, Staphylococcus aureus. The following applies: S. aureus ATCC 29213; multiple values when multiple MIC assays were conducted. The protocol: Minimum inhibitory concentrations were determined using the quality control strain S. aureus ATCC 29213 (Table 1) by the broth microdilution method according to guidelines of the Clinical and Laboratory Standards Institute (CLSI) (Cockerill, F. R.; et al., 2012, Methods for dilution antimicrobial susceptibility tests for bacteria that grow aerobically; approved standard-ninth edition. MA07-A9. Clinical and Laboratory Standard Institute, Wayne, Pa.). […] Published quality control ranges for gepotidacin and ciprofloxacin were used to validate each assay. MICs for selected compounds were also determined using a USA 300 strain of MRSA (Hidron, et al., Lancet Infect. Dis. 2009, 9:384-392). Vancomycin was used as an additional control.
`COc1ccc2nccc(CC[C@H]3OC[C@H](NC(=O)c4ccccc4)CO3)c2c1` [AB-0075, N-(2-(2-(6-methoxyquinolin-4-yl)ethyl)-trans-1,3-dioxan-5-yl)benzamide]: the “MIC 29213” value came out at 32 µg/mL (≈ 81.5 µM).

The test is the same for the next values; noted with them: Staphylococcus aureus, ATCC29213, S. aureus ATCC 29213; multiple values when multiple MIC assays were conducted.
In the case of `COc1ccc2ncc(=O)n(CC(O)[C@H]3OC[C@H](NCc4ccc5c(n4)NC(=O)CO5)CO3)c2c1` (relative stereo) [AB-0078, 6-(((2-(1-hydroxy-2-(7-methoxy-2-oxoquinoxalin-1(2H)-yl)ethyl)-trans-1,3-dioxan-5-yl)amino)methyl)-2H-pyrido[3,2-b][1,4]oxazin-3(4H)-one], the MIC is 4 µg/mL (≈ 8.27 µM).
`COc1ccc2ncc(=O)n(CC[C@H]3OC[C@H](NCc4cc5c(cn4)OCCO5)CO3)c2c1` [AB-0003, 1-(2-(5-(((2,3-dihydro-[1,4]dioxino[2,3-c]pyridin-7-yl)methyl)amino)-1,3-trans-dioxan-2-yl)ethyl)-7-methoxyquinoxalin-2(1H)-one]: the MIC was found to be 8 µg/mL (≈ 17.6 µM).
Still for that read-out and setting: under `COc1ccc2ncc(=O)n(CC[C@H]3OC[C@H](NCc4cc5c(cn4)OCCC5)CO3)c2c1` [AB-0006, 1-(2-(5-(((3,4-dihydro-2H-pyrano[2,3-c]pyridin-6-yl)methyl)amino)-trans-1,3-dioxan-2-yl)ethyl)-7-methoxyquinoxalin-2(1H)-one] stands 8 µg/mL (≈ 17.7 µM).
Same read-out and setting: under `COc1ccc2ncc(=O)n(CC[C@H]3OC[C@H](NCc4ccc(Cl)c(Cl)c4)CO3)c2c1` [AB-0007, 1-(2-(5-((3,4-dichlorobenzyl)amino)-trans-1,3-dioxan-2-yl)ethyl)-7-methoxyquinoxalin-2(1H)-one] stands 4 µg/mL (≈ 8.61 µM).
The same measure, in the same setting: as for `COc1ccc2nccc(CC[C@H]3OC[C@H](NCc4cc(F)ccc4F)CO3)c2c1` [AB-0022, N-(2,5-difluorobenzyl)-2-(2-(6-methoxyquinolin-4-yl)ethyl)-trans-1,3-dioxan-5-amine], the figure is 64 µg/mL (≈ 154 µM).
`COc1ccc2nccc(CC[C@H]3OC[C@H](NCc4ccc(F)c(F)c4)CO3)c2c1` [AB-0024, N-(3,4-difluorobenzyl)-2-(2-(6-methoxyquinolin-4-yl)ethyl)-trans-1,3-dioxan-5-amine] returned an MIC of 64 µg/mL (≈ 154 µM).
Same read-out and setting: under `COc1ccc2nccc(CC[C@H]3OC[C@H](NCc4c(F)cccc4F)CO3)c2c1` [AB-0025, N-(2,6-difluorobenzyl)-2-(2-(6-methoxyquinolin-4-yl)ethyl)-trans-1,3-dioxan-5-amine] stands more than 64 µg/mL; under `COc1ccc2nccc(CC[C@H]3OC[C@H](NCc4cccc(C#N)c4)CO3)c2c1` [AB-0026, 3-(((2-(2-(6-methoxyquinolin-4-yl)ethyl)-trans-1,3-dioxan-5-yl)amino)methyl)benzonitrile], 64 µg/mL (≈ 159 µM).
Regarding `COc1ccc2nccc(CC[C@H]3OC[C@H](NCc4ccccc4OC)CO3)c2c1` [AB-0027, N-(2-methoxybenzyl)-2-(2-(6-methoxyquinolin-4-yl)ethyl)-trans-1,3-dioxan-5-amine], the MIC was more than 64 µg/mL.
Still for that read-out and setting: under `COc1ccc2nccc(CC[C@H]3OC[C@H](NCc4cccc(F)c4F)CO3)c2c1` [AB-0028, N-(2,3-difluorobenzyl)-2-(2-(6-methoxyquinolin-4-yl)ethyl)-trans-1,3-dioxan-5-amine] stands 64 µg/mL (≈ 154 µM); under `COc1ccc2nccc(CC[C@H]3OC[C@H](NCc4cc(F)cc(F)c4)CO3)c2c1` [AB-0029, N-(3,5-difluorobenzyl)-2-(2-(6-methoxyquinolin-4-yl)ethyl)-trans-1,3-dioxan-5-amine], 16 µg/mL (≈ 38.6 µM); under `COc1ccc2nccc(CC[C@H]3OC[C@H](NCc4ccccc4C)CO3)c2c1` [AB-0032, 2-(2-(6-methoxyquinolin-4-yl)ethyl)-N-(2-methylbenzyl)-trans-1,3-dioxan-5-amine], more than 64 µg/mL.
`COc1ccc2nccc(CC[C@H]3OC[C@H](NCc4ccccc4F)CO3)c2c1` [AB-0033, N-(2-fluorobenzyl)-2-(2-(6-methoxyquinolin-4-yl)ethyl)-trans-1,3-dioxan-5-amine] showed an MIC of more than 64 µg/mL.
Still for that read-out and setting: under `COc1cccc(CN[C@H]2CO[C@H](CCc3ccnc4ccc(OC)cc34)OC2)c1` [AB-0034, N-(3-methoxybenzyl)-2-(2-(6-methoxyquinolin-4-yl)ethyl)-trans-1,3-dioxan-5-amine] stands 16 µg/mL (≈ 39.2 µM); under `COc1ccc2nccc(CC[C@H]3OC[C@H](NCc4ccsc4)CO3)c2c1` [AB-0035, 2-(2-(6-methoxyquinolin-4-yl)ethyl)-N-(thiophen-3-ylmethyl)-trans-1,3-dioxan-5-amine], more than 64 µg/mL.
The same measure, in the same setting: as for `COc1ccc2nccc(CC[C@H]3OC[C@H](NCc4cccs4)CO3)c2c1` [AB-0036, 2-(2-(6-methoxyquinolin-4-yl)ethyl)-N-(thiophen-2-ylmethyl)-trans-1,3-dioxan-5-amine], the figure is more than 64 µg/mL.
Still for that read-out and setting: under `COc1ccc2nccc(CC[C@H]3OC[C@H](NCc4cccc(Cl)c4)CO3)c2c1` [AB-0037, N-(3-chlorobenzyl)-2-(2-(6-methoxyquinolin-4-yl)ethyl)-trans-1,3-dioxan-5-amine] stands 32 µg/mL (≈ 77.5 µM); under `COc1ccc2nccc(CC[C@H]3OC[C@H](NCc4ccccc4)CO3)c2c1` [AB-0038, N-benzyl-2-(2-(6-methoxyquinolin-4-yl)ethyl)-trans-1,3-dioxan-5-amine], more than 64 µg/mL; under `COc1ccc2nccc(CC[C@H]3OC[C@H](NCc4ccc(F)cc4F)CO3)c2c1` [AB-0039, N-(2,4-difluorobenzyl)-2-(2-(6-methoxyquinolin-4-yl)ethyl)-trans-1,3-dioxan-5-amine], 64 µg/mL (≈ 154 µM).
The compound `COc1ccc2nccc(CC[C@H]3OC[C@H](NCc4cccc(OC)n4)CO3)c2c1` [AB-0040, N-((6-methoxypyridin-2-yl)methyl)-2-(2-(6-methoxyquinolin-4-yl)ethyl)-trans-1,3-dioxan-5-amine] yielded a minimum inhibitory concentration (MIC) of more than 64 µg/mL.
The same measure, in the same setting: as for `COc1ccc2nccc(CC[C@H]3OC[C@H](NCc4ccc(F)cc4)CO3)c2c1` [AB-0041, N-(4-fluorobenzyl)-2-(2-(6-methoxyquinolin-4-yl)ethyl)-trans-1,3-dioxan-5-amine], the figure is more than 64 µg/mL; as for `COc1ccc2nccc(CC[C@H]3OC[C@H](NCc4cccc(C)c4)CO3)c2c1` [AB-0042, 2-(2-(6-methoxyquinolin-4-yl)ethyl)-N-(3-methylbenzyl)-trans-1,3-dioxan-5-amine], 16 µg/mL (≈ 40.8 µM); as for `COc1ccc2nccc(CC[C@H]3OC[C@H](NCc4ccccc4Cl)CO3)c2c1` [AB-0043, N-(2-chlorobenzyl)-2-(2-(6-methoxyquinolin-4-yl)ethyl)-trans-1,3-dioxan-5-amine], more than 64 µg/mL.
On to `COc1ccc2nccc(CC[C@H]3OC[C@H](NCCc4ccccc4)CO3)c2c1` [AB-0045, 2-(2-(6-methoxyquinolin-4-yl)ethyl)-N-phenethyl-trans-1,3-dioxan-5-amine], for which the lowest concentration to inhibit growth (MIC) was 64 µg/mL (≈ 163 µM).
The same measure, in the same setting: under `COc1ccc2nccc(CC[C@H]3OC[C@H](NCc4ccccn4)CO3)c2c1` [AB-0048] stands 8 µg/mL (≈ 21.1 µM); under `COc1ccc2nccc(CC[C@H]3OC[C@H](NCc4cccnc4)CO3)c2c1` [AB-0049, 2-(2-(6-methoxyquinolin-4-yl)ethyl)-N-(pyridin-3-ylmethyl)-trans-1,3-dioxan-5-amine], more than 64 µg/mL.
Compound `COc1ccc2nccc(CC[C@H]3OC[C@H](NCc4cccc(F)c4)CO3)c2c1` [AB-0050, N-(3-fluorobenzyl)-2-(2-(6-methoxyquinolin-4-yl)ethyl)-trans-1,3-dioxan-5-amine] returned an MIC of 32 µg/mL (≈ 80.7 µM).
Same read-out and setting: as for `COc1ccc2nccc(CC[C@H]3OC[C@H](NCc4ccc(OC)nc4)CO3)c2c1` [AB-0056, N-((6-methoxypyridin-3-yl)methyl)-2-(2-(6-methoxyquinolin-4-yl)ethyl)-trans-1,3-dioxan-5-amine], the figure is 32 µg/mL (≈ 78.1 µM); as for `COc1ccc2nccc(CC[C@H]3OC[C@H](NCc4ccc(Cl)cn4)CO3)c2c1` [AB-0069, N-((5-chloropyridin-2-yl)methyl)-2-(2-(6-methoxyquinolin-4-yl)ethyl)-trans-1,3-dioxan-5-amine], 8 µg/mL (≈ 19.3 µM).
On to `COc1ccc2nccc(CC[C@H]3OC[C@H](NCc4ccc(C)cn4)CO3)c2c1` [AB-0070, 2-(2-(6-methoxyquinolin-4-yl)ethyl)-N-((5-methylpyridin-2-yl)methyl)-trans-1,3-dioxan-5-amine], for which the minimal inhibitory concentration (MIC) stood at 4 µg/mL (≈ 10.2 µM).
Still for that read-out and setting: under `COc1ccc2nccc(CC[C@H]3OC[C@H](NC(=O)c4ccccc4)CO3)c2c1` [AB-0075, N-(2-(2-(6-methoxyquinolin-4-yl)ethyl)-trans-1,3-dioxan-5-yl)benzamide] stands 16 µg/mL (≈ 40.8 µM); under `COc1ccc2nccc(CC[C@H]3OC[C@H](NCc4ccc(OC(F)F)cc4)CO3)c2c1` [AB-0084, N-(4-(difluoromethoxy)benzyl)-2-(2-(6-methoxyquinolin-4-yl)ethyl)-trans-1,3-dioxan-5-amine], 4 µg/mL (≈ 9 µM).
On the same count and under the same terms, as for `COc1ccc2nccc(CC[C@H]3OC[C@H](NC(=O)c4ccc5c(c4)OCCO5)CO3)c2c1` [AB-0088, N-(2-(2-(6-methoxyquinolin-4-yl)ethyl)-trans-1,3-dioxan-5-yl)-2,3-dihydrobenzo[b][1,4]dioxine-6-carboxamide], the figure is 8 µg/mL (≈ 17.8 µM).
The same measure, in the same setting: as for `COc1ccc2nccc(CC[C@H]3OC[C@H](NC(=O)c4ccc(Cl)c(Cl)c4)CO3)c2c1` [AB-0089, 3,4-dichloro-N-(2-(2-(6-methoxyquinolin-4-yl)ethyl)-trans-1,3-dioxan-5-yl)benzamide], the figure is not above 0.5 µg/mL.

In general, MIC refers to the least concentration at which growth counts as inhibited. Low values mean greater potency, high ones weaker potency.

The record behind these values is patent US11352349B2, “Type II topoisomerase inhibitors and methods of making and using thereof” (Ohio State Innovation Foundation, priority 2017, dated 2022).
